Consider five molecules from article PMC10272112 (Nature Communications, 2023).

Structures are written as SMILES. Values joined by “and” are separate entries in the source; they are usually repeats but may differ in a detail not shown here. Identical values can stand only once.

By EC50 is commonly meant the midpoint of the concentration-response curve.

The subject of one test is α-Tubulin AcK40. The experiment in a line: α-tubulin acetylation detection by western blot, CBP-HA transfected HEK293T. The format is cell-based. The note with it: HEK293T, ACY-738 5 µM. How it is done:
(§1) 0.2 × 10^6 HEK293T (ATCC: CRL-3216) cells were transfected with pcDNA 3.1-HA CBP plasmids (1 μg/well for the 6-well plate) by FuGENE. After 2 days, cells were treated with ACY-738, lipoic acid, and lipoamide for 7 h, then were washed by ice-cold PBS and lysed in Triton lysis buffer (50 mM Tris, pH 8.0, 150 mM NaCl, 1 mM EDTA, 0.1% TritonX-100 and complete EDTA-free protease inhibitors (Roche)) for analysis. To detect protein acetylation, 0.2 μM Trichostatin A and 5 mM nicotinamide were added to PBS for washing, and 10 μM trichostatin A, 10 mM nicotinamide, and 50 mM sodium butyrate were added to Triton lysis buffer.
(In western blotting, separated proteins are transferred to a membrane and probed.)

The subject of test [1] is DDX3X AcK118. The experiment in a line: DDX3X acetylation detection by western blot, CBP-HA transfected HEK293T. The format is cell-based. The note with it: 5 µM. How it is done:
as §1

For test [2], the system named is HDACs (HDAC1, HDAC2, HDAC6). Also on record: method as in earlier work. The note with it: ref Bantscheff et al., Nat Biotech, 2011; Lechner et al., Nat Chem Bio, 2023; read-out: EC50 in comparable chemoproteomic competition assays; cited from earlier work.
For test [3], the system named is DDX3X AcK118. The conditions noted are these: 10 µM; cited from earlier work.
For test [4], the system named is A549 cells. The experiment in a line: CellRox deep red assay for ROS quantification (with or without arsenite). The class given is cell-based. The conditions noted are these: NAC +Ars; sheet 4d.
For test [5], the system named is A549 cells. Briefly: CellRox deep red assay for tBuOOH-induced ROS. The note with it: NAC 500 ?M; sheet 4c; DMSO mean = 1.
Protocol: A549 cells were maintained in DMEM (Sigma) supplemented with 10% fetal bovine serum (Pan Biotech). […] The CellRox assay was performed according to the product guidelines (ThermoFisher). Briefly, cells were treated with lipoic acid, N-acetyl-cysteine (NAC), or vector control (DMSO) for 1 h, followed by a 2 h treatment with 200 µM tert-butyl hydroperoxide, and then stained with 5 µM CellRox Deep Red for 1 h. Cells were washed twice with FluoroBrite DMEM (ThermoFisher) supplemented with 10% FBS before imaging. CellRox Deep Red signal intensity was measured on a Leica DMI 6000 B epifluorescent microscope with a Cy5 filter set. […] Significance was calculated by ANOVA with a post hoc Dunnett’s multiple comparisons test against the DMSO control (GraphPad).

Regarding `O=C(NO)c1cnc(NC2(c3ccccc3)CC2)nc1` [ACY-738], the “α-Tubulin AcK40 acetylation level relative to control” value in the test on α-Tubulin AcK40 stood at 6.5 fold. Besides, the “DDX3X AcK118 acetylation level relative to control” value is reported as 3.0 fold in the test with DDX3X AcK118 [1] and 3 fold in the test on DDX3X AcK118 [1] (listed as ACY738).
Consider `O=C(O)CCCc1ccccc1` [Phenylbutyric acid], for which, in test [2], the EC50 was 300 to 500 µM.
Take `CN1CCc2c(c3ccccc3n2Cc2ccc(C(=O)NO)cc2)C1` [Tubastatin A]: in the test with DDX3X AcK118 [3], the DDX3X hyperacetylation was 2.6 fold.
On to `CC(=O)N[C@@H](CS)C(=O)O` [NAC, N-acetyl-cysteine], for which, in the test on A549 cells [4], the “ROS (CellRox), relative to DMSO -Ars., Mean” value is reported as 0.6662; the “ROS (CellRox), relative to DMSO -Ars., replicate values” was 0.6371 and 0.672 and 0.6896. In the test on A549 cells [5], the “tBuOOH-induced ROS (CellRox), relative to DMSO, Mean” value is on record as 0.6999; the “tBuOOH-induced ROS (CellRox), relative to DMSO, replicate values” is 0.7684 and 0.7006 and 0.6306.
Take `CCCC(CCC)C(=O)O` [Valproic acid]: the concentration for a half-maximal effect (EC50) in test [2] is 300 to 500 µM.
